How the values were obtained:
human spermatozoa [1] = test: Protein tyrosine phosphorylation (sperm capacitation hallmark) by anti-phosphotyrosine western blot; format: cell-based
Experimental: For sperm incubations Biggers-Whitten-Whittingham (BWW) media described by Biggers J D et al. (1971) with slightly modifications was used. BBW-washed (BWW-W): 94.5 mM NaCl, 4.8 mM KCl, 1.7 mM CaCl2×2H2O, 1.17 mM KH2PO4, 1.22 mM MgSO4×7H2O, 20 mM HEPES. Non capacitation media (NC) contains all the component of BWW-washed plus 5.56 mM glucose and gentamycin 10 mg/mL. Capacitating media (CAP): contains all the component of NC plus 25 mM of HCO3 and 26 mg of Bovine Serum Albumin (BSA). All the media were balanced to a final pH 7.2-7.4
(§1) For sperm preparation, semen samples were collected by masturbation into sterile cups after 2-4 days of sexual abstinence. Samples were left to liquefy for up 2 hours at 37° C. to complete liquefaction prior to processing as described below. Only ejaculates whose semen parameters (total fluid volume, sperm concentration, motility and morphology) meet the (2010) normality criteria established by the WHO (2010) were processed. Ejaculates were submitted to discontinuous gradient centrifugation (Sperm Wash Gradient Set (45% and 90%)) for 20 min at 300 g at room temperature. […] The pellet was then resuspended in 1 mL of non-capacitating (NC) media and sperm concentration was determined using a Neubauer counting chamber under an optical microscope (×100 magnification). Due to the low number of spermatozoa obtained in each ejaculate, different ejaculates were pooled for different assessments. Finally, depending on experimental design spermatozoa were diluted in 1 ml of capacitating (CAP media containing 26 mg/mL of BSA and 25 mM of bicarbonate) or NC at a final concentration of 20×10^6/ml for 6 hours at 37° C. in presence or absence of the activator. YK-3-237 was added at the referred concentration at time 0 of incubation and keep along the time of sperm incubation.
For the Western blot analysis, spermatozoa were washed twice in phosphate-buffered saline (PBS) by centrifugation at 5000 g for 3 min at room temperature. The pellet was resuspended in 2×Laemmli sample buffer and incubated over night at 4° C. The samples were then centrifuged again (10000 g, 15 min, 4° C.) and the protein concentration was measured using a Bio-Rad DC Protein Assay. […] The phosphorylation state of the sperm proteins was analysed by overnight incubation at 4° C. with an anti-phosphotyrosine monoclonal antibody (mAb; Clone 4G10, Millipore; diluted 1:3000, v/v, in Tris-buffered saline-Tween 20 solution (TBST) containing 3% milk). The levels of sperm lipid peroxidation was evaluated by overnight incubation at 4° C. with an anti-4-hydroxynonenal (4HNE) antibody (pAb; Millipore; diluted 1:3000, v/v, in Tris-buffered saline-Tween 20 solution (TBST) containing 3% BSA. Membranes incubated with anti-phosphotyrosine were incubated for 60 min at room temperature with a horseradish peroxidase (HRP)-conjugated secondary anti-mouse antibody (diluted 1:5000, v/v, in TBST containing or 3% milk). Membranes incubated with anti-4HNE were incubated for 60 min at room temperature with a horseradish peroxidase (HRP)-conjugated secondary anti-goat antibody (diluted 1:5000, v/v, in TBST containing or 3% BSA). […]
Membranes' fluorescence was read with the BioRad FX-Pro-plus (Bio-Rad, Hemel Hempstead, UK). […] Western blotting regions of interest (ROIs) used for quantification are indicated by a vertical bar on the right of the respective western blot. […]

breast cancer cells = settings: Yi et al., 2013; cited from earlier work
renal fibroblast = settings: Ponnusamy et al., 2015; cited from earlier work
human spermatozoa [2] = test: Sperm viability by eosin-nigrosin staining; format: cell-based; settings: 6 hours, capacitating conditions
Experimental: as §1, with “YK-3-237 was added at the referred concentration at time 0 of incubation and keep along the time of sperm incubation.” left out
For determination of sperm viability, the instructions by the WHO (2010) were followed, sperm viability was assessed by eosin-nigrosin staining technique. […] A total of 200 spermatozoa were counted in random fields under a bright-field microscope. […]

COc1ccc(/C=C/C(=O)c2cc(OC)c(OC)c(OC)c2)cc1B(O)O [YK-3-237, B-[2-methoxy-5-[(1E)-3-oxo-3-(3,4,5-trimethoxyphenyl)-1-propen-1-yl]phenyl]-boronic acid]
tyrosine phosphorylation levels, co-incubation in presence of bicarbonate (human spermatozoa [1]; 10 μM, 6 hours, bicarbonate present): increases the tyrosine phosphorylation levels | tyrosine phosphorylation levels, complete capacitating media containing bicarbonate and BSA (human spermatozoa [1]; 10 μM, 6 hours, compared with bicarbonate alone): further improved | tyrosine phosphorylation levels in comparison with control (human spermatozoa [1]; 6 hours co-incubation, capacitating media (HCO3 25 mM, BSA 26 mg/mL), 37° C., vs control 6 hours): tripled | best concentration which enhanced tyrosine phosphorylation levels (human spermatozoa [1]; 6 hours incubation in capacitating conditions (bicarbonate and BSA)): 10 µM | increase of tyrosine phosphorylation levels (human spermatozoa [1]; human sperm, capacitating conditions, FIGS. 1A, 2A and 3A): up to 3 folds | effect on breast cancer cells (breast cancer cells): antiproliferative effect | effect on renal fibroblast and renal fibrogenesis (renal fibroblast): promotes renal fibroblast activation and aggravates renal fibrogenesis | effect on sperm viability (human spermatozoa [2]; 10 μM): did not affect sperm viability | effect on sperm viability, all concentrations tested (human spermatozoa [2]; 37° C., different concentrations): none of the concentration tested had detrimental effect

From patent US20230390314A1, “METABOLIC ACTIVATORS FOR ENHANCING SPERM CAPACITATION IN MAMMALS” (UNIVERSIDADE DO PORTO, priority 2020, published 2023)
